52 compounds from ChEMBL document CHEMBL1139968, “Cytotoxic effects of C-glycosides in HOS and HeLa cell lines” (2007) can be followed below.

The test system of one experiment is HOS. Briefly: Antiproliferative activity against human HOS cells by SRB assay. It is filed as functional. (In general: Sulforhodamine B stains cellular protein and so reports cell mass.)
Another experiment relates to HeLa. Kind of experiment: Antiproliferative activity against human HeLa cells by SRB assay. The format is functional.

The structures appear in SMILES notation.

One may read the GI50 as the concentration at which growth is held to half of that of the control. A lower GI50 goes with greater sensitivity of the cells. Consider `CCCC[C@@H]1O[C@H](COCc2ccccc2)[C@@H](OCc2ccccc2)[C@H](OCc2ccccc2)[C@H]1O`, for which the GI50 in the experiment on HOS is 40.1 µM; with HeLa it was over 50 µM.

Consider `O[C@@H]1[C@@H](OCc2ccccc2)[C@H](OCc2ccccc2)[C@@H](COCc2ccccc2)O[C@@H]1CC1CCCCC1`, for which the GI50 in the experiment on HOS is 20.7 µM; in the experiment with HeLa it was over 50 µM.

For `CC[C@@H]1O[C@H](COCc2ccccc2)[C@@H](OCc2ccccc2)[C@H](OCc2ccccc2)C1=O`, the results for the GI50 with HOS and with HeLa were 4.3 µM and over 50 µM, respectively.

Take `CCC[C@H]1O[C@H](COCc2ccccc2)[C@@H](OCc2ccccc2)[C@H](OCc2ccccc2)C1=O`: the GI50 with HOS and with HeLa was over 50 µM throughout.

With `CCCCCCCCCCCCCCCOC[C@H]1O[C@@H](CCC)[C@H](O)[C@@H](OCCCCCCCCCCCCCCC)[C@@H]1OCCCCCCCCCCCCCCC`, the GI50 in the experiment on HOS and in the experiment on HeLa was over 50 µM each time.

Turning to `CCC[C@@H]1O[C@H](COCc2ccc3ccccc3c2)[C@@H](OCc2ccc3ccccc3c2)[C@H](OCc2ccc3ccccc3c2)[C@H]1O`, the GI50 in the experiment on HOS and in the experiment on HeLa was over 50 µM throughout.

Turning to `c1ccc(COC[C@H]2O[C@@H](Cc3ccccc3)[C@H](OCc3ccccc3)[C@@H](OCc3ccccc3)[C@@H]2OCc2ccccc2)cc1`, the GI50 in the experiment with HOS and in the experiment with HeLa was over 50 µM throughout.

Take `CC(=O)O[C@@H]1[C@@H](OCc2ccccc2)[C@H](OCc2ccccc2)[C@@H](COCc2ccccc2)O[C@H]1C`: the results for the concentration for 50% growth inhibition (GI50) in the experiment with HOS and in the experiment with HeLa were 8.8 µM and over 50 µM, respectively.

Consider `CC(C)C[C@@H]1O[C@H](COCc2ccccc2)[C@@H](OCc2ccccc2)[C@H](OCc2ccccc2)[C@H]1O`, for which the GI50 with HOS was 45.2 µM; in the experiment on HeLa it was over 50 µM.

Take `O[C@H]1CO[C@H](COCc2ccccc2)[C@@H](OCc2ccccc2)[C@@H]1OCc1ccccc1`: the results for the GI50 in the experiment on HOS and with HeLa were 37.9 µM and over 50 µM, respectively.

Turning to `C=CC[C@@H]1O[C@H](COCc2ccccc2)[C@@H](OCc2ccccc2)[C@H](OCc2ccccc2)[C@H]1OC(C)=O`, the GI50 in the experiment with HOS is 11 µM; in the experiment with HeLa, over 50 µM.

On to `C[C@@H]1O[C@H](COCc2ccccc2)[C@@H](OCc2ccccc2)[C@H](OCc2ccccc2)[C@H]1O`, for which the GI50 in the experiment with HOS and in the experiment with HeLa was over 50 µM each time.

Take `CCC[C@@H]1O[C@H](COCc2ccc3ccccc3c2)[C@@H](OCc2ccc3ccccc3c2)[C@H](OCc2ccc3ccccc3c2)[C@H]1OC(C)=O`: the concentration for 50% growth inhibition (GI50) with HOS and in the experiment on HeLa was over 50 µM each time.

Turning to `CC[C@H]1O[C@H](COCc2ccccc2)[C@@H](OCc2ccccc2)[C@H](OCc2ccccc2)[C@H]1O`, the GI50 in the experiment on HOS and in the experiment with HeLa was over 50 µM each time.

For the compound `C[C@@H]1O[C@H](COCc2ccccc2)[C@@H](OCc2ccccc2)[C@H](OCc2ccccc2)C1=O`, the GI50 in the experiment on HOS and in the experiment with HeLa was over 50 µM in each case.

In the case of `CCCCC[C@@H]1O[C@H](COCc2ccccc2)[C@@H](OCc2ccccc2)[C@H](OCc2ccccc2)C1=O`, the GI50 with HOS and with HeLa was over 50 µM throughout.

As for `O[C@@H]1[C@@H](OCc2ccccc2)[C@H](OCc2ccccc2)[C@@H](COCc2ccccc2)O[C@H]1CC1CC1`, the GI50 in the experiment on HOS and with HeLa was over 50 µM each time.

Consider `O[C@@H]1[C@@H](OCc2ccccc2)[C@H](OCc2ccccc2)[C@@H](COCc2ccccc2)O[C@H]1Cc1ccccc1`, for which the GI50 in the experiment on HOS was determined as 29.2 µM; in the experiment on HeLa, 17.4 µM.

Regarding `CC(C)C[C@@H]1O[C@H](COCc2ccccc2)[C@@H](OCc2ccccc2)[C@H](OCc2ccccc2)C1=O`, the GI50 in the experiment with HOS and with HeLa was over 50 µM each time.

With `CCCCOC[C@H]1O[C@@H](CCC)[C@H](O)[C@@H](OCCCC)C1OCCCC` (some centres undefined), the GI50 in the experiment on HOS and in the experiment on HeLa was over 50 µM each time.

`OC[C@@H]1O[C@H](COCc2ccccc2)[C@@H](OCc2ccccc2)[C@H](OCc2ccccc2)[C@H]1O`: the values for the 50% growth inhibitory concentration (GI50) in the experiment on HOS and in the experiment with HeLa were 27.3 µM and 25.8 µM, respectively.

In the case of `CC(=O)O[C@@H]1[C@@H](OC(C)=O)[C@H](Cc2ccccc2)O[C@H](COCc2ccccc2)[C@H]1OC(C)=O`, the GI50 with HOS and in the experiment with HeLa was over 50 µM throughout.

`C=CC[C@@H]1O[C@H](COCc2ccccc2)[C@@H](OCc2ccccc2)[C@H](OCc2ccccc2)[C@H]1O`: the concentration for 50% growth inhibition (GI50) turned out to be 44.1 µM in the experiment on HOS and 26.2 µM in the experiment on HeLa.

In the case of `C=CC[C@@H]1O[C@H](COCc2ccccc2)[C@@H](OCc2ccccc2)[C@H](OCc2ccccc2)[C@H]1OCc1ccccc1`, the GI50 in the experiment on HOS and in the experiment on HeLa was over 50 µM each time.

For the compound `CCC[C@H]1O[C@H](COCc2ccccc2)[C@@H](OCc2ccccc2)[C@H](OCc2ccccc2)[C@H]1O`, the values for the GI50 in the experiment with HOS and with HeLa were 23.6 µM and 17.4 µM, respectively.

With `CC(C)C[C@@H]1O[C@H](COCc2ccccc2)[C@@H](OCc2ccccc2)[C@H](OCc2ccccc2)[C@@H]1O`, the GI50 is 26.3 µM in the experiment on HOS and 24.6 µM in the experiment with HeLa.

For the compound `CCC[C@@H]1O[C@H](CO)[C@@H](O)[C@H](O)[C@H]1O`, the GI50 in the experiment on HOS and with HeLa was over 50 µM in each case.

For `CCCCCCCCCCCCCCCOC[C@H]1O[C@H](CCC)[C@H](O)[C@@H](OCCCCCCCCCCCCCCC)[C@@H]1OCCCCCCCCCCCCCCC`, the GI50 with HOS is 29.9 µM; with HeLa, 28.7 µM.

With `CC[C@@H]1O[C@H](COCc2ccccc2)[C@@H](OCc2ccccc2)[C@H](OCc2ccccc2)[C@H]1OC(C)=O`, the GI50 in the experiment with HOS and in the experiment on HeLa was over 50 µM in each case.

As to `CC(=O)O[C@@H]1[C@@H](OCc2ccccc2)[C@H](OC(C)=O)[C@@H](COCc2ccccc2)O[C@H]1Cc1ccccc1`, the GI50 in the experiment with HOS was determined as 6.1 µM; with HeLa it was 5.4 µM.

As for `c1ccc(COC[C@H]2O[C@@H]3C[C@@H]3[C@@H](OCc3ccccc3)[C@@H]2OCc2ccccc2)cc1`, the GI50 in the experiment with HOS and in the experiment on HeLa was over 50 µM throughout.

Consider `CCC[C@@H]1O[C@H](COCc2ccccc2)[C@@H](OCc2ccccc2)[C@H](OCc2ccccc2)C1=O`, for which the GI50 with HOS and in the experiment with HeLa was over 50 µM in each case.

With `CCCCOC[C@H]1O[C@@H](CCC)C(=O)[C@@H](OCCCC)[C@@H]1OCCCC`, the GI50 with HOS and in the experiment on HeLa was over 50 µM in each case.

In the case of `ClC1(Cl)[C@@H]2[C@@H](OCc3ccccc3)[C@H](OCc3ccccc3)[C@@H](COCc3ccccc3)O[C@@H]21`, the GI50 was 1.6 µM in the experiment with HOS and over 50 µM in the experiment on HeLa.

For `CC(=O)OC[C@H]1O[C@@H](Cc2ccccc2)[C@H](OC(C)=O)[C@@H](OCc2ccccc2)[C@@H]1OC(C)=O`, the GI50 in the experiment on HOS and in the experiment with HeLa was over 50 µM each time.

`c1ccc(COC[C@H]2OCC[C@@H](OCc3ccccc3)[C@@H]2OCc2ccccc2)cc1`: the figures for the GI50 in the experiment on HOS and with HeLa were 22.2 µM and 33.3 µM, respectively.

Consider `CCC[C@@H]1O[C@H](COCc2ccccc2)[C@@H](OCc2ccccc2)[C@H](OCc2ccccc2)[C@@H]1O`, for which the 50% growth inhibitory concentration (GI50) in the experiment on HOS is over 50 µM; with HeLa, 23.3 µM.

Regarding `OCC[C@@H]1O[C@H](COCc2ccccc2)[C@@H](OCc2ccccc2)[C@H](OCc2ccccc2)[C@H]1O`, the figures for the GI50 with HOS and with HeLa were 39.7 µM and 30.2 µM, respectively.

With `O[C@@H]1[C@@H](OCc2ccccc2)[C@H](OCc2ccccc2)[C@@H](COCc2ccccc2)O[C@H]1CC1CCCCC1`, the GI50 turned out to be 4.4 µM in the experiment on HOS and 9.5 µM in the experiment on HeLa.

Take `C=CC[C@@H]1O[C@H](COCc2ccccc2)[C@@H](OCc2ccccc2)[C@H](OCc2ccccc2)C1=O`: the GI50 with HOS was 7.6 µM; in the experiment with HeLa, over 50 µM.

For `O[C@@H]1[C@@H](OCc2ccccc2)[C@H](OCc2ccccc2)[C@@H](COCc2ccccc2)O[C@H]1c1ccccc1`, the GI50 in the experiment with HOS and in the experiment with HeLa was over 50 µM throughout.

Regarding `CC[C@@H]1O[C@H](COCc2ccccc2)[C@@H](OCc2ccccc2)[C@H](OCc2ccccc2)[C@H]1O`, the GI50 in the experiment with HOS was found to be 34.2 µM; with HeLa it was 19.8 µM.

As for `c1ccc(COC[C@H]2O[C@H]3C[C@H]3[C@@H](OCc3ccccc3)[C@@H]2OCc2ccccc2)cc1`, the GI50 in the experiment with HOS and in the experiment with HeLa was over 50 µM in each case.

On to `CCC[C@@H]1O[C@H](COCc2ccc(F)cc2)[C@@H](OCc2ccc(F)cc2)[C@H](OCc2ccc(F)cc2)[C@H]1O`, for which the GI50 in the experiment on HOS was determined as 17.2 µM; with HeLa, 12.3 µM.

Turning to `CC(C)C[C@H]1O[C@H](COCc2ccccc2)[C@@H](OCc2ccccc2)[C@H](OCc2ccccc2)[C@H]1O`, the GI50 in the experiment on HOS was 44.5 µM; in the experiment with HeLa, 43.9 µM.

For `O[C@@H]1[C@@H](O)[C@H](Cc2ccccc2)O[C@H](COCc2ccccc2)[C@H]1OCc1ccccc1`, the GI50 amounted to 33.5 µM in the experiment with HOS and 47.9 µM in the experiment with HeLa.

As for `OC[C@H]1O[C@@H](Cc2ccccc2)[C@H](O)[C@@H](OCc2ccccc2)[C@@H]1OCc1ccccc1`, the GI50 in the experiment with HOS is 31.6 µM; in the experiment with HeLa, 38 µM.

On to `CCC[C@H]1O[C@H](COCc2ccc(F)cc2)[C@@H](OCc2ccc(F)cc2)[C@H](OCc2ccc(F)cc2)[C@H]1O`, for which the GI50 was over 50 µM in the experiment on HOS and 5.6 µM in the experiment with HeLa.

As to `CCC[C@@H]1O[C@H](COCc2ccccc2)[C@@H](OCc2ccccc2)[C@H](OCc2ccccc2)[C@H]1O`, the GI50 with HOS was 38.6 µM; in the experiment on HeLa, 18.9 µM.

With `O=C1[C@H](Cc2ccccc2)O[C@H](COCc2ccccc2)[C@@H](OCc2ccccc2)[C@@H]1OCc1ccccc1`, the GI50 in the experiment with HOS and with HeLa was over 50 µM throughout.

As to `CC(=O)O[C@@H]1[C@@H](OCc2ccccc2)[C@H](OCc2ccccc2)[C@@H](COCc2ccccc2)O[C@@H]1CC(C)C`, the GI50 in the experiment on HOS and with HeLa was over 50 µM in each case.

Take `OCCC[C@@H]1O[C@H](COCc2ccccc2)[C@@H](OCc2ccccc2)[C@H](OCc2ccccc2)[C@H]1O`: the GI50 with HOS and with HeLa was over 50 µM each time.
